This note sets out measurements from patent US10500286B2, “CCK2R-drug conjugates” (priority 2015, dated 2019).

Data set [1] has as its system HEK-CCK2R cells. The data set can be described thus: In vitro study of conjugates versus competitor, [3H]thymidine incorporation. The data set is classed as cell-based. As for the experimental part: (§1) CCK2R-positive HEK-CCK2R cells were seeded in 12-well Falcon plates and allowed to form nearly confluent monolayers overnight in RPMI/HIFCS. Each well then received increasing concentrations of CCK2R targeted conjugates (EC1812 or EC1868)+/−10 μM of CCK2R binding competitor (Re-EC1786 or Re-EC1825). Cells were pulsed for 2 h at 37° C., rinsed with medium, and then chased in fresh medium up to 72 h. Spent medium was aspirated and replaced with medium containing [^3H]thymidine. Following a 2 h incubation, cells were washed with PBS and then treated with 5% trichloroacetic acid. The trichloroacetic acid was aspirated and cells were solubilized in 0.25 N sodium hydroxide. Each solubilized sample were transferred to scintillation vials containing Ecolume scintillation cocktail and counted in a liquid scintillation counter. Final results were expressed as the percentage of [^3H]thymidine incorporation relative to untreated controls and IC50 values calculated using GraphPad Prism software.
For orientation: Uptake of a labelled nucleoside into DNA is a usual measure of proliferation.

Data set [2] is described as follows: Body weight of mice bearing subcutaneous HEK-CCK2R tumors during treatment. Type of data set: in vivo. Conditions: 2 μmol/kg, TIW×2 weeks. On the procedure:
(▪) control; (▴) EC1873; (●) EC1868; (∘) EC1947.
(§2) Female Balb/c nu/nu mice were fed ad libitum with 2918 irradiated Teklad Global 18% Rodent Diet for the duration of the experiment. HEK-CCK2R tumor cells were inoculated subcutaneously at the right flank of each mouse. Mice were dosed through the lateral tail vein under sterile conditions in a volume of 200 μL of phosphate-buffered saline (PBS).

Another data set deals with HEK-CCK2R tumor cells. The data set can be described thus: Antitumor activity in HEK-CCK2R tumor model. Type of data set: in vivo, mice. Particulars: 2 μmol/kg. As for the experimental part:
as §2
Growth of each s.c. tumor was followed by measuring the tumor two times per week. Tumors were measured in two perpendicular directions using Vernier calipers, and their volumes were calculated as 0.5×L×W^2, where L=measurement of longest axis in mm and W=measurement of axis perpendicular to L in mm.
Treatment with 2 μmol/kg of EC1947 (Sulfated CCK8-Tubulysin B SMDC), three times a week for two weeks produced maximal anti-tumor activity with 80% cures and 20% CR's. In comparison, EC1868 (CCK8-PEG3-Tubulysin B SMDC) and EC1873 (CCK8-PEG12-Tubulysin B SMDC) at the same dose and schedule produced 100% CR's and 80% CR's/20% PR's, respectively.

Data set [3] relates to HEK-CCK2R cells. The data set is classed as cell-based. Particulars: 2 h pulse at 37 C, chase up to 72 h, [3H]thymidine incorporation relative to untreated controls. On the procedure:
as §1, with “(n=4).” for “(EC1812 or EC1868)+/−10 μM of CCK2R binding competitor (Re-EC1786 or Re-EC1825).”

Where [4] appears, read: three times a week for two weeks.

Each structure is given as a SMILES string. Where two headings read alike, the source gives them in different places.

A word on the IC50: it is the concentration that inhibits the measured activity by half. `CCCC(=O)OCN(C(=O)[C@@H](NC(=O)[C@H]1CCCCN1C)C(C)CC)[C@H](C[C@@H](OC(C)=O)c1nc(C(=O)N[C@@H](Cc2ccc(O)cc2)C[C@H](C)C(=O)NNC(=O)OCCSSC[C@H](NC(=O)[C@H](CCC(=O)NC[C@@H](O)[C@H](O)[C@@H](O)[C@@H](O)CO)NC(=O)[C@H](CCC(=O)O)NC(=O)[C@H](CCC(=O)NC[C@@H](O)[C@H](O)[C@@H](O)[C@@H](O)CO)NC(=O)[C@H](CCC(=O)O)NC(=O)CCCCCCCNC(=O)c2cccc(NC(=O)N[C@@H]3CN(C4CCCCC4)c4ccccc4N(CC(=O)C(C)(C)C)C3=O)c2)C(=O)O)cs1)C(C)C` (some centres unmarked) [EC1812]: the “cytotoxic activity on HEK-CCK2R, in words” value with HEK-CCK2R cells [1] was “relatively inactive”. Moreover, the IC50 with HEK-CCK2R cells [1] (+ 10 μM competitor Re-EC1786, read-out: IC50 in presence of Re-EC1786) was 262 nM; in the data set on HEK-CCK2R cells [1] (conjugate alone, read-out: IC50), 225 nM. For the same compound, the “competition of activity by excess Re-EC1786, in words” value with HEK-CCK2R cells [1] (excess Re-EC1786) was “not competeable”.

Consider `CCCC(=O)OCN(C(=O)[C@@H](NC(=O)[C@H]1CCCCN1C)C(C)CC)[C@H](C[C@@H](OC(C)=O)c1nc(C(=O)N[C@@H](Cc2ccc(O)cc2)C[C@H](C)C(=O)NNC(=O)OCCSSC[C@H](NC(=O)[C@H](CC(=O)O)NC(=O)[C@@H](N)CNC(C)=O)C(=O)NCCOCCOCCOCCC(=O)N[C@@H](CC(=O)O)C(=O)N[C@@H](Cc2ccc(O)cc2)C(=O)N[C@@H](CCSC)C(=O)NCC(=O)N[C@@H](Cc2c[nH]c3ccccc23)C(=O)N[C@@H](CCSC)C(=O)N[C@@H](CC(=O)O)C(=O)N[C@@H](Cc2ccccc2)C(N)=O)cs1)C(C)C` (some centres unmarked) [EC1868], for which the “cytotoxic activity on HEK-CCK2R, in words” value in the data set on HEK-CCK2R cells [1] is given as “potent, competeable cytotoxic activity”. Also, the weight loss result in data set [2] was “do not induce weight loss”. In the data set on HEK-CCK2R tumor cells (TIW×2 weeks, n=5), the “CR, number of animals, second figure of {PR, CR, cure}” value was found to be 5. For the same compound, in the data set on HEK-CCK2R tumor cells (setting [4]), the “CR's” value was 100%. This compound also returned an IC50 in the data set with HEK-CCK2R cells [3] of 0.2 nM.

Turning to `CCCC(=O)OCN(C(=O)[C@@H](NC(=O)[C@H]1CCCCN1C)C(C)CC)[C@H](C[C@@H](OC(C)=O)c1nc(C(=O)N[C@@H](Cc2ccc(O)cc2)C[C@H](C)C(=O)NNC(=O)OCCSSC[C@H](NC(=O)[C@H](CC(=O)O)NC(=O)[C@@H](N)CNC(C)=O)C(=O)NCCOCCOCCOCCOCCOCCOCCOCCOCCOCCOCCOCCOCCC(=O)N[C@@H](CC(=O)O)C(=O)N[C@@H](Cc2ccc(O)cc2)C(=O)N[C@@H](CCSC)C(=O)NCC(=O)N[C@@H](Cc2c[nH]c3ccccc23)C(=O)N[C@@H](CCSC)C(=O)N[C@@H](CC(=O)O)C(=O)N[C@@H](Cc2ccccc2)C(N)=O)cs1)C(C)C` (some centres unmarked) [EC1873], the weight loss result in data set [2] is given as “do not induce weight loss”. Also, in the data set on HEK-CCK2R tumor cells (setting [4]), the “CR's” value is reported as 80% and the “PR's” value turned out to be 20%. The compound also had a half-maximal inhibitory concentration (IC50) with HEK-CCK2R cells [3] of 2.8 nM.

`CCCC(=O)OCN(C(=O)[C@@H](NC(=O)[C@H]1CCCCN1C)C(C)CC)[C@H](C[C@@H](OC(C)=O)c1nc(C(=O)N[C@@H](Cc2ccc(O)cc2)C[C@H](C)C(=O)NNC(=O)OCSSC[C@H](NC(=O)[C@H](CC(=O)O)NC(=O)[C@@H](N)CNC(C)=O)C(=O)NCCOCCOCCC(=O)N[C@@H](CC(=O)O)C(=O)N[C@@H](Cc2ccc(OS(=O)(=O)O)cc2)C(=O)N[C@@H](CCSC)C(=O)NCC(=O)N[C@@H](Cc2c[nH]c3ccccc23)C(=O)N[C@@H](CCSC)C(=O)N[C@@H](CC(=O)O)C(=O)N[C@@H](Cc2ccccc2)C(N)=O)cs1)C(C)C` (some centres unmarked) [EC1947]: in data set [2], the weight loss result is given as “do not induce weight loss”. Moreover, in the data set on HEK-CCK2R tumor cells (setting [4]), the “CR's” value was found to be 20% and the cures is given as 80%. Moreover, the IC50 with HEK-CCK2R cells [3] was 0.9 nM.
